According to patent publication US20080221021A1, “Novel Corticotropin-Releasing Factor Receptor 1 (Crfr1) Agonist” (Max-Planck-Gesellschaft Zur Forderung Der, priority 2004, published 2008):
“Also recorded” adds a separate entry of the source. Where no end group is shown, it is not given here.

How the values were obtained:
[1] = assay type: physicochemical
Protocol: A high solubility under physiological conditions is a crucial prerequisite especially for compounds to be injected into the rodent brain. […] Both peptides were soluble in a concentration range of up to 1000 μM (FIG. 6), so that there was no limitation in view of the agonist doses typically used in behavioral experiments. […] Consequently, solutions of cortagine to be used in the pharmacological assays were prepared in phosphate buffered saline (PBS; pH=7.4).

mCRFR2β = target: T1, mCRFR2β (Mus musculus, UniProt Q60748); assay: Competition binding scintillation proximity assay, mCRFR2β membranes
T1 construct: expressed in transfected cells
T1 sequence (Q60748 1-431 isoform Q60748-2): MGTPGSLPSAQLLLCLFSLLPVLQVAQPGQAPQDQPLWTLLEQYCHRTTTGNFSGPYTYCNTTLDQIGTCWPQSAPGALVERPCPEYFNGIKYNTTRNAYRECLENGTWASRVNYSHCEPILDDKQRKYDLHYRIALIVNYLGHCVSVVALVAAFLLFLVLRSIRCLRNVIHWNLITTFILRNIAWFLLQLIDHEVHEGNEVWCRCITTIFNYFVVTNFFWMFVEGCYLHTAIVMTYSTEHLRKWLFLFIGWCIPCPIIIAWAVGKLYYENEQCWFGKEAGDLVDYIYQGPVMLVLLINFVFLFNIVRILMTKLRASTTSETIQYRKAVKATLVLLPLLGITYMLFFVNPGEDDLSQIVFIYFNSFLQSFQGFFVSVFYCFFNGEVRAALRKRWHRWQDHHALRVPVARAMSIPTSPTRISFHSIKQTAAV
Protocol: (§1) Crude membrane fractions were prepared from human embryonic kidney (HEK) 293 cells stably expressing either cloned rat CRFR1α(rCRFR1) or mouse CRFR2β (mCRFR2β) as described (20). Rat CRFBP (rCRFBP) was produced in HEK 293 cells stably transfected with cDNA coding for rCRFBP C-terminally fused with a His6 sequence as described (36). The scintillation proximity assays (SPA) for binding analysis of CRFR and CRFBP have been already described in detail (21, 22). For competition binding assays of rCRFR1 and rCRFBP, [^125I-Tyr^0]h/rCRF was used as radiolabeled peptide, whereas [^125I-Tyr^0]Svg was employed for mCRFR2β.

rCRFR1 = target: T2, rCRFR1 (Rattus norvegicus, UniProt P35353); assay: Competition binding scintillation proximity assay, rCRFR1 membranes
T2 construct: expressed in transfected cells
T2 sequence (P35353 24-415): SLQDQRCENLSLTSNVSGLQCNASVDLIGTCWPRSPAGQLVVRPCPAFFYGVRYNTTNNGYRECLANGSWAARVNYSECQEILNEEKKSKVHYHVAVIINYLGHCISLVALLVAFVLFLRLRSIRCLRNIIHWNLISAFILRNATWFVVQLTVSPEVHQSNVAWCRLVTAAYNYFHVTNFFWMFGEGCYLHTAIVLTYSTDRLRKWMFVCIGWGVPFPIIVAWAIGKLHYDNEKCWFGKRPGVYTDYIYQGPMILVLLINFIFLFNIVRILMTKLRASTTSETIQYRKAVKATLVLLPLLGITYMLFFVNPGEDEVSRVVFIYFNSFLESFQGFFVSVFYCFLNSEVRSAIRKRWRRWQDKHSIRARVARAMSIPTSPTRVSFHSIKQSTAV
Protocol: as §1

C57BL/6J mice [2] = assay: Elevated plus-maze test, intraseptal (i.s.) injection; assay type: in vivo, mouse; details: 100 ng into lateral septum (i.s.), 30 min before EPM, vs aCSF
Protocol: (§2) Nine-week old male C57BL/6J (Centre D'Elevage Janvier, Sultzfeld, France) were individually housed in macrolon cages according to the recommendations of the Society for Laboratory Animal Science (Germany). All experiments were carried out in accordance with the European Council Directive (86/609/EEC) with the permission of the Animal Protection Law enforced by the District Government of Braunschweig, State of Lower Saxony, Germany, which is in full agreement with the APA ethical guidelines. All efforts were made to minimize animal suffering. The number of mice per group was 9-11.
All peptides were dissolved in aCSF except for the CRFR2-selective antagonist antisauvagine-30 (aSvg-30) (20) that was initially dissolved in 10 mM aqueous acetic acid and diluted with the same volume of two-fold concentrated aCSF. The final pH of the peptide solutions was 7.4. The exact peptide concentration of the injection solutions was determined by amino acid analysis with a Beckman HPLC analyzer system 6300. […]
The elevated plus-maze (EPM) behavior of C57BL/6J mice cannulated in the lateral ventricles or lateral intermediate septal area (23) was investigated 30 min after injection of the CRFR1 agonist under investigation for 5 min in the EPM test (24). […] The behavior of the mice was recorded by a video camera connected to a PC and analyzed by the Technical & Scientific Equipment software VIDEOMOT 2. […]

rCRFBP = target: T3, rCRFBP (Rattus norvegicus, UniProt P24388); assay: Competition binding scintillation proximity assay, rCRFBP; details: binding analysis, in words
T3 construct: His6 (C); made in house; host or cells: HEK 293 cells, stably transfected
T3 sequence (P24388 25-322): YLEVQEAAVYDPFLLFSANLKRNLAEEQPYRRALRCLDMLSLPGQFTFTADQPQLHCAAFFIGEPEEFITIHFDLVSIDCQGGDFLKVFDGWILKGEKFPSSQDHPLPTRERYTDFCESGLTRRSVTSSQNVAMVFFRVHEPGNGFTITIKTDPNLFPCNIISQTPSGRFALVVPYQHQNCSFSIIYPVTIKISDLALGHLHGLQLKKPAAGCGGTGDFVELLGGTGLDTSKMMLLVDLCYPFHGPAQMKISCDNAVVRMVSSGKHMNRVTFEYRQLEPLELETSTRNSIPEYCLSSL
Protocol: as §1

C57BL/6J mice [3] = assay: Elevated plus-maze test, i.c.v. injection; assay type: in vivo, mouse; details: for anxiety-like behavior (time spent in open arms, number of open arm entries) / locomotor activity (total distance crossed): 30 min before EPM, vs aCSF
Protocol: as §2
All peptides were dissolved in aCSF except for the CRFR2-selective antagonist antisauvagine-30 (aSvg-30) (20) that was initially dissolved in 10 mM aqueous acetic acid and diluted with the same volume of two-fold concentrated aCSF. The final pH of the peptide solutions was 7.4. The exact peptide concentration of the injection solutions was determined by amino acid analysis with a Beckman HPLC analyzer system 6300. Total hydrolysis of the peptides was carried out in the presence of 1 nmol norvaline as internal standard with 6 M HCl for 24 h at 100° C.
The elevated plus-maze (EPM) behavior of C57BL/6J mice cannulated in the lateral ventricles or lateral intermediate septal area (23) was investigated 30 min after injection of the CRFR1 agonist under investigation for 5 min in the EPM test (24). The CRFR2-selective antagonist aSvg-30 in aCSF or aCSF alone were injected 15 min before agonist administration. The behavior of the mice was recorded by a video camera connected to a PC and analyzed by the Technical & Scientific Equipment software VIDEOMOT 2. The time spent, distance crossed, and number of entries in the open arms, closed arms, and center were recorded. The cannular placement was confirmed for each mouse by histological examination of the brains after methylene blue injection (23). The behavioral data are expressed as mean±SEM, and were analyzed using a two- and one-way ANOVA, with Bonferroni/Dunn test applied, post hoc, for individual between-group comparisons at the p<0.05 level of significance. Shift of preference from the open to the closed arms was interpreted as an increase of anxiety-like behavior. Locomotor activity was determined with this test by the distance travelled.

[4] = i.c.v., two-way ANOVA over doses, EPM

With “[Glu^21, Ala^40] [Svg^1-12]x[h/rCRF^14-30]x[Svg^30-40] (XGPPISIDLSLELLREVLEMERAEQLAQQAANNRLLLDTA; X not resolved here; ends and bridges not checked; also: Glx at position 1 not given here (Gln/Glu/pGlu)) [cortagine]” the “solubility in 10 mM aqueous acetic acid” value [1] was “insoluble”, the “affinity for CRFR2” value (mCRFR2β; binding analysis, in words) was “negligible” and the “change in affinity for CRFR2 in comparison to parent peptide” value (mCRFR2β; compound 8 vs compound 6, compound 9 vs compound 8) was “no significant change”. The “selectivity for CRFR1” value (rCRFR1; binding analysis, CRFR1 vs CRFR2, in words) was “high selectivity for rCRFR1 over mCRFR2β”, the “change in affinity to CRFR1 in comparison to parent peptide” value (rCRFR1; compound 8 vs compound 6, compound 9 vs compound 8, Nle20 analog vs compound 9) was “no significant change” and the “CRFR1-selectivity over CRFR2β, IC50(mCRFR2)/IC50(rCRFR1)” value (rCRFR1; ratio of binding affinities) was 208. For the same substance, the “anxiety-like behavior (time spent in open arms, number of open arm entries)” value (shortened to “anxiety-like behavior”) (C57BL/6J mice [2]) was “not”, the “affinity to CRFBP” value (rCRFBP) was “negligible; also recorded: does not display any detectable affinity” and the “affinity to CRFBP” value (rCRFBP; listed as compound 9) was “completely abolished”. For the same substance, the “anxiety-like behavior” value (C57BL/6J mice [3]; 10 ng i.c.v.) was “ineffective”, the “locomotor activity (total distance crossed)” value (C57BL/6J mice [3]; 10 ng i.c.v.) was “ineffective” and the “anxiety-like behavior” value (C57BL/6J mice [3]; 30 ng i.c.v.) was “significantly decreased time spent in open arms; also recorded: increased significantly anxiety-like behavior; also recorded: increased anxiety levels”. For the same substance, the “locomotor activity (total distance crossed)” value (C57BL/6J mice [3]; 30 ng i.c.v.) was “decreased significantly; also recorded: reduced locomotor activity”, the “anxiety-like behavior” value (C57BL/6J mice [3]; 100 ng i.c.v.) was “increased significantly anxiety-like behavior; also recorded: increased anxiety levels” and the “locomotor activity (total distance crossed)” value (C57BL/6J mice [3]; 100 ng i.c.v.) was “decreased significantly; also recorded: reduced locomotor activity”. For the same substance, the “anxiety-like behavior” value (C57BL/6J mice [3]; 300 ng i.c.v.) was “increased significantly anxiety-like behavior; also recorded: increased anxiety levels”, the “locomotor activity (total distance crossed)” value (C57BL/6J mice [3]; 300 ng i.c.v.) was “decreased significantly; also recorded: reduced locomotor activity” and the “ability to modulate locomotor activity, cortagine vs oCRF” value (C57BL/6J mice [3]; [4]) was “did not differ”. The “anxiogenic potency compared to oCRF” value (C57BL/6J mice [3]; [4]) was “significantly higher anxiogenic potency; also recorded: doses lower than required of OCRF”.
